Data on 28 molecules can be found in patent US11866431B2, “Bicyclic compounds” (Vivace Therapeutics, Inc., priority 2018, dated 2024).

The experiment concerns 8XTBD luciferase reporter (YAP reporter) in HEK293T cells. The experiment in a line: YAP Reporter Assay. In kind it is cell-based. Conditions: Homo sapiens, HEK-293T; HEK293T cells stably transfected with 8XTBD luciferase reporter and pRLTK; 24-hr incubation; top concentration 3 μM; read-out: Firefly Luciferase IC50. The gist of the method:
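HEK293T cells stably carrying 8XTBD firefly luciferase and TK-renilla (3×10^3 cells/well) dosed 3-4 h after plating with compounds from 3 μM final, 1:3 dilution, 10 points, quadruplicates. After 24 h at 37° C, Dual-Glo readings gave IC50 and maximum inhibition reported separately for firefly and renilla.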
(In a reporter assay the amount or activity of a reporter protein is the signal.)
For `[N-]=[N+]=NCCNC(=O)c1ccc2c(-c3ccc(C(F)(F)F)cc3)cccc2c1` [Compound 261, N-(2-azidoethyl)-5-(4-(trifluoromethyl)phenyl)-2-naphthamide], the IC50 is below 100 nM. The same measure for `CC(C)NC(=O)c1ccc2c(-c3ccc(C(F)(F)F)cc3)ccc(I)c2c1` [Compound 88, 8-iodo-N-isopropyl-5-(4-(trifluoromethyl)phenyl)-2-naphthamide]: 100 to 1000 nM; for `CC(C)NC(=O)c1ccc2c(-c3ccc(C(F)(F)F)cc3)nccc2c1` [Compound 11, N-isopropyl-1-[4-(trifluoromethyl)phenyl]isoquinoline-6-carboxamide]: below 100 nM. For `O=C(NC(CO)c1ccccn1)c1cnc2c(-c3ccc(C(F)(F)F)cc3)cccc2c1` (stereo not shown) [Compound 260, N-[2-hydroxy-1-(2-pyridyl)ethyl]-8-[4-(trifluoromethyl)phenyl]quinoline-3-carboxamide] the value was below 100 nM.

As to `CCNS(=O)(=O)c1ccc2c(-c3ccc(C(F)(F)F)cc3)cccc2c1` [Compound 5, N-ethyl-5-(4-(trifluoromethyl)phenyl)naphthalene-2-sulfonamide], the IC50 is below 100 nM. The same measure for `O=C(NC1(c2ccccc2)CC1)c1ccc2c(-c3ccc(C(F)(F)F)cc3)cccc2c1` [Compound 121, N-(1-phenylcyclopropyl)-5-[4-(trifluoromethyl)phenyl]naphthalene-2-carboxamide]: below 100 nM; for `CC(C)NC(=O)c1ccc2c(-c3ccc(C(F)(F)F)cc3)cc(N(C)S(C)(=O)=O)cc2c1` [Compound 53, N-isopropyl-7-(N-methylmethylsulfonamido)-5-(4-(trifluoromethyl)phenyl)-2-naphthamide]: 100 to 1000 nM; for `C[C@@H](CO)NC(=O)c1ccc2c(-c3ccc(C(F)(F)F)cc3)cccc2c1` [Compound 84, (S)—N-(1-hydroxypropan-2-yl)-5-(4-(trifluoromethyl)phenyl)-2-naphthamide]: below 100 nM. With `C[C@@H](NC(=O)c1ccc2c(-c3ccc(C(F)(F)F)cc3)cccc2c1)c1ncc[nH]1` [Compound 242, (R)—N-(1-(1H-imidazol-2-yl)ethyl)-5-(4-(trifluoromethyl)phenyl)-2-naphthamide], the IC50 lay in the range of 100 to 1000 nM. The same measure for `CCc1ccc(-c2ccc(C(F)(F)F)cc2)c2ccc(C(=O)NC(C)C)cc12` [Compound 21, 8-ethyl-N-isopropyl-5-[4-(trifluoromethyl)phenyl]naphthalene-2-carboxamide]: below 100 nM; for `COc1cc(-c2ccc(C(F)(F)F)cc2)c2ccc(C(=O)NC(CO)c3ccccn3)cc2c1` (stereo not shown) [Compound 291, N-(2-Hydroxy-1-(pyridin-2-yl)ethyl)-7-methoxy-5-(4-(trifluoromethyl)phenyl)-2-naphthamide]: below 100 nM. For `Nc1cccc(CNC(=O)c2ccc3c(-c4ccc(C(F)(F)F)cc4)cccc3c2)c1` [Compound 235, N-(3-aminobenzyl)-5-(4-(trifluoromethyl)phenyl)-2-naphthamide] the value was below 100 nM; for `CC(C)NC(=O)c1ccc2c(-c3ccc(C(F)(F)F)cc3)cncc2c1` [Compound 25, N-isopropyl-4-[4-(trifluoromethyl)phenyl]isoquinoline-7-carboxamide], 100 to 1000 nM. The same measure for `C[C@H](NC(=O)c1ccc2c(-c3ccc(C(F)(F)F)cc3)cccc2c1)c1cccc2nc[nH]c12` [Compound 174, N-[(1S)-1-(3H-benzimidazol-4-yl)ethyl]-5-[4-(trifluoromethyl)phenyl]naphthalene-2-carboxamide]: below 100 nM; for `CC(C)NC(=O)c1ccc2c(-c3ccc(C(F)(F)F)cc3)cc3ocnc3c2c1` [Compound 71, N-isopropyl-5-(4-(trifluoromethyl)phenyl)naphtho[1,2-d]oxazole-8-carboxamide]: below 100 nM; for `O=C(O)c1cnc2c(-c3ccc(C(F)(F)F)cc3)cc(Cl)c(Cl)c2c1` [Compound 326, 5,6-dichloro-8-(4-(trifluoromethyl)phenyl)quinoline-3-carboxylic Acid]: below 100 nM. With `C[C@@H](NC(=O)c1ccc2c(-c3ccc(C(F)(F)F)cc3)cccc2c1)c1cccc2ccsc12` [Compound 176, N-[(1R)-1-(benzothiophen-7-yl)ethyl]-5-[4-(trifluoromethyl)phenyl]naphthalene-2-carboxamide], the IC50 fell in the range of 100 to 1000 nM. Take `N#Cc1nccc(CNC(=O)c2ccc3c(-c4ccc(C(F)(F)F)cc4)cccc3c2)n1` [Compound 179, N-((2-cyanopyrimidin-4-yl)methyl)-5-(4-(trifluoromethyl)phenyl)-2-naphthamide]: the IC50 was below 100 nM. In the case of `CC(C)(C)OC(=O)NCCOCCOCCNC(=O)c1ccc2c(-c3ccc(C(F)(F)F)cc3)cccc2c1` [Compound 49, Tert-Butyl (2-(2-(2-(5-(4-(trifluoromethyl)phenyl)-2-naphthamido)ethoxy)ethoxy)ethyl)carbamate], the IC50 fell in the range of 100 to 1000 nM. The same measure for `CNS(=O)(=O)c1ccc2c(-c3ccc(C(F)(F)F)cc3)cccc2c1` [Compound 3, N-methyl-5-(4-(trifluoromethyl)phenyl)naphthalene-2-sulfonamide]: below 100 nM; for `COc1cc(-c2ccc(C(F)(F)F)cc2F)c2ncc(C(=O)O)cc2c1` [Compound 321, 8-(2-fluoro-4-(trifluoromethyl)phenyl)-6-methoxyquinoline-3-carboxylic Acid]: below 100 nM; for `O=C(O)c1ccc2c(-c3ccc(C(F)(F)F)cc3)cccc2c1O` [Compound 335, 1-hydroxy-5-(4-(trifluoromethyl)phenyl)-2-naphthoic Acid]: below 100 nM. For `C[C@@H](NC(=O)c1ccc2c(-c3ccc(C(F)(F)F)cc3)cccc2c1)C1CN(C)C1` [Compound 153, N-[(1R)-1-(1-methylazetidin-3-yl)ethyl]-5-[4-(trifluoromethyl)phenyl]naphthalene-2-carboxamide] the value was 100 to 1000 nM. Regarding `O=C(O)c1cnc2c(-c3ccc(C(F)(F)F)cc3)cc(F)c(F)c2c1` [Compound 328, 5,6-difluoro-8-(4-(trifluoromethyl)phenyl)quinoline-3-carboxylic Acid], the IC50 is below 100 nM.

As to `COC[C@H](C)NC(=O)c1ccc2c(-c3ccc(C(F)(F)F)cc3)cc(OC)cc2c1` [Compound 294, (S)-7-Methoxy-N-(1-methoxypropan-2-yl)-5-(4-(trifluoromethyl)phenyl)-2-naphthamide], the IC50 is below 100 nM. As to `C[C@@H](NC(=O)c1cnc2c(-c3ccc(C(F)(F)F)cc3)cccc2c1)C1CNC1` [Compound 158, N-[(1R)-1-(Azetidin-3-yl)ethyl]-8-[4-(trifluoromethyl)phenyl]quinoline-3-carboxamide], the IC50 was 100 to 1000 nM.

`COC(=O)c1ccc2c(-c3ccc(C(F)(F)F)cc3)cnc(O)c2c1` [Compound 14, Methyl 1-oxo-4-[4-(trifluoromethyl)phenyl]-2H-isoquinoline-7-carboxylate]: the IC50 is below 100 nM.

Turning to `CC(C)NC(=O)c1ccc2c(-c3ccc(C(F)(F)F)cc3)cc(Br)cc2c1` [Compound 32, 7-bromo-N-isopropyl-5-[4-(trifluoromethyl)phenyl]naphthalene-2-carboxamide], the IC50 is below 100 nM.

As a reminder, the IC50 is the concentration that gives 50% inhibition.
